{"source": "paper PMC10225205", "about": "(Cancer Medicine, 2023)", "key": {"advanced solid tumors": {"tested_on": "advanced solid tumors", "experiment": "FIGHT-102 efficacy, investigator-assessed RECIST 1.1", "assay_type": "in vivo, human", "design": "key to Best overall response: PR, partial response; SD, stable disease; PD, progressive disease; NE, not evaluable", "conditions": "Part 2; for Best overall response / Best change in sum of target lesion diameters: 13.5 mg ID", "protocol": "Efficacy assessments occurred at screening (baseline scan) and on Day 15 of every third cycle with a ±2‐day window. Tumor status was assessed by the investigator using appropriate disease‐specific techniques. For solid tumors, the Response Evaluation Criteria in Solid Tumors (RECIST) 1.1 criteria were used,[19] and the recommended method for measuring tumor burden was computed tomography scan. Alternative modalities compatible with RECIST 1.1 could be used at the investigator's discretion provided they were used consistently throughout the study.\nBoth the efficacy and the safety population included all patients who received at least 1 dose of study drug. The PK/pharmacodynamic population included all patients who received at least one dose of study drug and provided at least one postdose plasma sample for PK/pharmacodynamic measurement. No comparisons are made between patients or against historical controls; only comparisons to pretreatment conditions were made."}, "FGF23": {"tested_on": "FGF23", "experiment": "Plasma FGF23 concentration (Meso Scale Discovery assay)", "assay_type": "in vivo, human", "protocol": "Plasma samples for pharmacodynamic assessments were collected predose on Days 1, 14, and 15 of Cycle 1 and any time on Day 1 (±3 days) of the subsequent cycles. […] Baseline FGF23 concentrations were assessed in plasma samples collected on Days 1 and 15 of Cycle 1 using a commercially available assay (Meso Scale Discovery). […] Inhibition of FGFR2 was assessed using an ex vivo assay that measured phosphorylated FGFR2α concentration following exposure of FGFR2‐amplified gastric cancer cells (KATOIII) to patient plasma."}, "pFGFR2": {"tested_on": "pFGFR2", "conditions": "read-out: In vivo IC50 for the inhibition of pFGFR2; cited from earlier work"}, "[1]": {"conditions": "FIGHT-101; cited from earlier work"}, "[2]": {"conditions": "cited from earlier work"}, "[3]": {"experiment": "FIGHT-102 pemigatinib plasma/urine pharmacokinetics (noncompartmental)", "conditions": "for AUC(0-t) / AUC / Cmax / Vd/F / Tmax / half-life: human, in vivo, 13.5 mg; for AUC: AUCss,0-24h; for Vd/F: Vz/F; for Tmax: median; for half-life: t½"}, "[4]": {"conditions": "cholangiocarcinoma, central FGFR2 alteration, local FGFR2 translocation"}, "[5]": {"conditions": "cholangiocarcinoma, central FGFR3 mutation"}, "[6]": {"conditions": "colorectal cancer, central FGFR1 amp"}, "[7]": {"conditions": "esophageal cancer, central FGF3/4/12/19 amp"}, "[8]": {"conditions": "esophageal cancer, central FGFR1 amp"}, "[9]": {"conditions": "lung cancer (NSCLC), central FGFR1 amp, FGF12 amp"}, "[10]": {"conditions": "other (apocrine sweat gland carcinoma), central FGFR2 amp"}, "[11]": {"conditions": "other (intrahepatic cholangiocarcinoma), central FGFR3 fusion"}, "[12]": {"conditions": "other (urachal cancer), central FGF3 amp"}, "[13]": {"conditions": "urothelial tract/bladder cancer (bladder cancer), central FGFR3 mutation (p.Y373C)"}, "[14]": {"conditions": "urothelial tract/bladder cancer (renal pelvis cancer), central FGF3/4/19 amp"}, "[15]": {"conditions": "geometric mean (CV%), C1D14, 13.5 mg ID or CD, n 33"}, "[16]": {"conditions": "mean ± SD, C1D14, 13.5 mg ID or CD, n 33"}}, "note": "Where “and” joins values, the source holds several entries; their conditions need not be identical. Identical values can stand only once. Like-named read-outs stand apart in the source and are kept apart here."}
{"smiles": "CCN1C(=O)N(c2c(F)c(OC)cc(OC)c2F)Cc2cnc3[nH]c(CN4CCOCC4)cc3c21", "note": "[Pemigatinib]", "values": [{"measurement": "Best overall response", "setting": "advanced solid tumors; breast cancer, central FGFR1 amp", "value": "PD"}, {"measurement": "Best change in sum of target lesion diameters", "setting": "advanced solid tumors; [4]", "value": "–13.8%"}, {"measurement": "Best overall response", "setting": "advanced solid tumors; [4]", "value": "SD"}, {"measurement": "Best change in sum of target lesion diameters", "setting": "advanced solid tumors; [5]", "value": 30.9, "unit": "%"}, {"measurement": "Best overall response", "setting": "advanced solid tumors; [5]", "value": "PD"}, {"measurement": "Best change in sum of target lesion diameters", "setting": "advanced solid tumors; [6]", "value": 44.7, "unit": "%"}, {"measurement": "Best overall response", "setting": "advanced solid tumors; [6]", "value": "PD"}, {"measurement": "Best change in sum of target lesion diameters", "setting": "advanced solid tumors; [7]", "value": 34.9, "unit": "%"}, {"measurement": "Best overall response", "setting": "advanced solid tumors; [7]", "value": "PD"}, {"measurement": "Best overall response", "setting": "advanced solid tumors; esophageal cancer, central FGF3/4/19 amp, local FGF19 amp", "value": "PD"}, {"measurement": "Best change in sum of target lesion diameters", "setting": "advanced solid tumors; [8]", "value": 6.5, "unit": "%"}, {"measurement": "Best overall response", "setting": "advanced solid tumors; [8]", "value": "SD"}, {"measurement": "Best change in sum of target lesion diameters", "setting": "advanced solid tumors; esophageal cancer, central FGFR1 amp, FGF3/4/19 amp (first of two such patients)", "value": 37.8, "unit": "%"}, {"measurement": "Best overall response", "setting": "advanced solid tumors; esophageal cancer, central FGFR1 amp, FGF3/4/19 amp (first of two)", "value": "PD"}, {"measurement": "Best change in sum of target lesion diameters", "setting": "advanced solid tumors; esophageal cancer, central FGFR1 amp, FGF3/4/19 amp (second of two such patients)", "value": 3.0, "unit": "%"}, {"measurement": "Best overall response", "setting": "advanced solid tumors; esophageal cancer, central FGFR1 amp, FGF3/4/19 amp (second of two)", "value": "PD"}, {"measurement": "Best change in sum of target lesion diameters", "setting": "advanced solid tumors; gallbladder cancer, central none, local FGFR3 mutation", "value": 25.0, "unit": "%"}, {"measurement": "Best overall response", "setting": "advanced solid tumors; gallbladder cancer, local FGFR3 mutation", "value": "PD"}, {"measurement": "Best change in sum of target lesion diameters", "setting": "advanced solid tumors; [9]", "value": 22.2, "unit": "%"}, {"measurement": "Best overall response", "setting": "advanced solid tumors; [9]", "value": "PD"}, {"measurement": "Best change in sum of target lesion diameters", "setting": "advanced solid tumors; [10]", "value": "–42.1%"}, {"measurement": "Best overall response", "setting": "advanced solid tumors; [10]", "value": "PR"}, {"measurement": "Best change in sum of target lesion diameters", "setting": "advanced solid tumors; [11]", "value": 65.2, "unit": "%"}, {"measurement": "Best overall response", "setting": "advanced solid tumors; [11]", "value": "PD"}, {"measurement": "Best change in sum of target lesion diameters", "setting": "advanced solid tumors; [12]", "value": 44.8, "unit": "%"}, {"measurement": "Best overall response", "setting": "advanced solid tumors; [12]", "value": "PD"}, {"measurement": "Best overall response", "setting": "advanced solid tumors; pancreatic cancer (neuroendocrine), central FGFR1 amp", "value": "PD"}, {"measurement": "Best change in sum of target lesion diameters", "setting": "advanced solid tumors; pancreatic cancer (neuroendocrine), central FGFR1 amp, local FGFR1 mutation (p.N577K)", "value": 40.8, "unit": "%"}, {"measurement": "Best change in sum of target lesion diameters", "setting": "advanced solid tumors; [13]", "value": "–19.6%"}, {"measurement": "Best overall response", "setting": "advanced solid tumors; [13]", "value": "SD"}, {"measurement": "Best change in sum of target lesion diameters", "setting": "advanced solid tumors; [14]", "value": 24.2, "unit": "%"}, {"measurement": "Best overall response", "setting": "advanced solid tumors; [14]", "value": "PD"}, {"measurement": "Median duration of response", "setting": "advanced solid tumors; responders, 95% CI: 4.17, 14.95", "value": 9.56, "unit": "months"}, {"measurement": "Mean increase of plasma FGF23", "setting": "FGF23; 9 mg", "value": 2.6, "unit": "fold"}, {"measurement": "Mean increase of plasma FGF23", "setting": "FGF23; 13.5 mg", "value": 2.9, "unit": "fold"}, {"measurement": "Rise of median FGF23 concentration from baseline", "setting": "FGF23; 13.5 mg QD, first 2 weeks of treatment", "value": "slightly more than twofold"}, {"measurement": "Mean increase of plasma FGF23", "setting": "FGF23; 18 mg", "value": 3.9, "unit": "fold"}, {"measurement": "Patients with elevated FGF23 concentration at Day 15 of Cycle 1", "setting": "FGF23; 37/41 patients, all doses", "value": 90, "unit": "%"}, {"measurement": "Mean FGF23 concentration", "setting": "FGF23; C1D15, all doses, baseline 198 ± 29", "value": "464 ± 49", "unit": "pg/mL"}, {"measurement": "IC50", "setting": "pFGFR2", "value": 22.6, "unit": "nM"}, {"measurement": "Most common (>30%) overall TEAEs", "setting": "[1]", "value": "hyperphosphatemia, fatigue, dry mouth, stomatitis, diarrhea, and alopecia"}, {"measurement": "Recommended dosage for further studies", "setting": "[1]", "value": 13.5, "unit": "mg QD"}, {"measurement": "AUC0-24 geometric mean", "setting": "[2]; 13.5 mg QD steady state, CV% 54.1", "value": 2.62, "unit": "µM·h"}, {"measurement": "Geometric mean half-life", "setting": "[2]; 13.5 mg QD, CV% 51.6", "value": 15.4, "unit": "h"}, {"measurement": "Cmax", "setting": "[2]; 13.5 mg QD, CV% 56.4, read-out: Steady-state Cmax geometric mean", "value": 236, "unit": "nM"}, {"measurement": "Terminal half-life", "setting": "[2]; dose-independent", "value": 15, "unit": "h"}, {"measurement": "Time to reach Cmax", "setting": "[2]; doses of ≥6 mg", "value": "1 to 2", "unit": "h"}, {"measurement": "tmax, median", "setting": "[3]; C1D1, 13.5 mg ID or CD, n 36", "value": 1, "unit": "h"}, {"measurement": "CLss/F, geometric mean (CV%)", "setting": "[3]; C1D14, 13.5 mg ID or CD, n 33", "value": "10.2 (55.5) L/h and 10.2 L/h"}, {"measurement": "CLss/F, mean ± SD", "setting": "[3]; C1D14, 13.5 mg ID or CD, n 33", "value": "11.6 ± 6.52", "unit": "L/h"}, {"measurement": "Cmin,ss, geometric mean (CV%)", "setting": "[3]; C1D14, 13.5 mg ID or CD, n 33", "value": "56.0 (61.0) nM"}, {"measurement": "Cmin,ss, mean ± SD", "setting": "[3]; C1D14, 13.5 mg ID or CD, n 33", "value": "66.2 ± 45.2", "unit": "nM"}, {"measurement": "AUC(0-t)", "setting": "[3]; AUC0-24h, geometric mean (CV%), C1D1, 13.5 mg ID or CD, n 36", "value": 1.88, "unit": "µM·h"}, {"measurement": "AUC(0-t)", "setting": "[3]; AUC0-24h, mean ± SD, C1D1, 13.5 mg ID or CD, n 36", "value": "2.02 ± 0.762", "unit": "µM·h"}, {"measurement": "AUC(0-t)", "setting": "[3]; AUClast, geometric mean (CV%), C1D1, 13.5 mg ID or CD, n 36", "value": 1.85, "unit": "µM·h"}, {"measurement": "AUC(0-t)", "setting": "[3]; AUClast, mean ± SD, C1D1, 13.5 mg ID or CD, n 36", "value": "1.99 ± 0.748", "unit": "µM·h"}, {"measurement": "AUC", "setting": "[3]; [15]", "value": 2.72, "unit": "µM·h"}, {"measurement": "AUC", "setting": "[3]; [16]", "value": "3.09 ± 1.68", "unit": "µM·h"}, {"measurement": "Cmax", "setting": "[3]; Cmax, geometric mean (CV%), C1D1, 13.5 mg ID or CD, n 36", "value": 216, "unit": "nM"}, {"measurement": "Cmax", "setting": "[3]; Cmax, mean ± SD, C1D1, 13.5 mg ID or CD, n 36", "value": "260 ± 136", "unit": "nM"}, {"measurement": "Cmax", "setting": "[3]; Cmax,ss, geometric mean (CV%), C1D14, 13.5 mg ID or CD, n 33", "value": 195, "unit": "nM"}, {"measurement": "Cmax", "setting": "[3]; Cmax,ss, mean ± SD, C1D14, 13.5 mg ID or CD, n 33", "value": "238 ± 139", "unit": "nM"}, {"measurement": "Vd/F", "setting": "[3]; [15]", "value": 201, "unit": "L"}, {"measurement": "Vd/F", "setting": "[3]; [16]", "value": "258 ± 216", "unit": "L"}, {"measurement": "Tmax", "setting": "[3]; C1D1, 13.5 mg ID or CD, n 36", "value": 1.43, "unit": "h"}, {"measurement": "Tmax", "setting": "[3]; C1D14, 13.5 mg ID or CD, n 33", "value": 1.02, "unit": "h"}, {"measurement": "half-life", "setting": "[3]; [15]", "value": 13.6, "unit": "h"}, {"measurement": "half-life", "setting": "[3]; [16]", "value": "15.4 ± 9.03", "unit": "h"}]}
